Molecular target: T1, aldosterone synthase (Homo sapiens, UniProt P19099)
T1 construct: synthesized in the adrenal cortex by aldosterone synthase; endogenous in cells; host or cells: adrenal cortex of healthy human subjects (in vivo, oral dosing)
T1 sequence (P19099 25-503): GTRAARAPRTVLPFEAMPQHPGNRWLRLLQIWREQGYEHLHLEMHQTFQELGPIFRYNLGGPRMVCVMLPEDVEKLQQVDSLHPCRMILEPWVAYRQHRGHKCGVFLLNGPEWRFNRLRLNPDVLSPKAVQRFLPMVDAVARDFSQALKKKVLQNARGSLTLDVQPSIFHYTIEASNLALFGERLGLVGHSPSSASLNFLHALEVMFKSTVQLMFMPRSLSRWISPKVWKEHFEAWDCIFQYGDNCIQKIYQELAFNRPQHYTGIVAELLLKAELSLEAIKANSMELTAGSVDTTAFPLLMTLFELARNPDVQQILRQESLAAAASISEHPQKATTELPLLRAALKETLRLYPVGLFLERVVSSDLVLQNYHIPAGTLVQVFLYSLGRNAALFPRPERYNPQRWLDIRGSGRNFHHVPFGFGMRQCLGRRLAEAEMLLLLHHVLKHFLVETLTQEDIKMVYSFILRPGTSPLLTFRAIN
Assay: MAD study: plasma aldosterone and precursors (18-hydroxycorticosterone, corticosterone, 11-deoxycorticosterone)
Format: in vivo
Settings: for Plasma 11-deoxycorticosterone, Day −1 predose / Plasma 18-hydroxycorticosterone, Day −1 predose / Plasma aldosterone, Day −1 predose / Plasma corticosterone, Day −1 predose: baseline; for inhibition of aldosterone synthesis: normal salt diet and low salt diet, 10-day dosing
Source text: For each subject, the study consisted of: • A screening period of up to 28 days; • A 5-day inpatient run-in period during which subjects adhered to a controlled, standardized diet and underwent baseline PD assessments; • A 15-day inpatient treatment period, during which subjects received (R)-compound 1 or placebo once daily for 10 days while adhering to a controlled, standardized diet, followed by PK and PD sampling over an additional 5 days; and • A follow-up visit 3 days (1 day) after discharge from the clinical unit. • A cortisol stimulation test (Cohorts 1 and 2 only) and standing aldosterone assessment (all cohorts) were performed on Days 1 and 10. Serial blood samples for PK and PD were obtained prior to and at specified time points over 24 hours after dosing on Day 1 as well as prior to and at specified time points over 120 hours after dosing on Day 10. In addition, blood samples for PK were collected prior to dosing on Days 8 and 9. Urine for PK and PD measurements was collected over 24 hours starting just prior to dosing on Day 1 as well as over 120 hours starting just prior to dosing on Day 10. […]

[1] = 2.5 mg QD, normal salt diet, mean

For `CCC(=O)N[C@@H]1CCCc2c(-c3ccc4c(c3)CCC(=O)N4C)cncc21` [(R)-Compound 1, (R)—N-(4-(1-methyl-2-oxo-1,2,3,4-tetrahydroquinolin-6-yl)-5,6,7,8-tetrahydroisoquinolin-8-yl)propionamide], the “Plasma 18-hydroxycorticosterone, Day 10, 24 hours postdose” value (2.5 mg QD, low salt diet, mean) was 961.8 pg/mL, the “Plasma 18-hydroxycorticosterone, Day 10, predose” value (2.5 mg QD, low salt diet, mean) was 895.4 pg/mL and the “Plasma 18-hydroxycorticosterone, Percent change from Day −1 to Day 10” value (2.5 mg QD, low salt diet, mean) was −22.0%. For the same molecule, the “Plasma aldosterone, Day 1, 12 hours postdose” value (2.5 mg QD, low salt diet, mean) was 48.013 pg/mL, the “Plasma aldosterone, Day 1, predose” value (2.5 mg QD, low salt diet, mean) was 151.988 pg/mL and the “Plasma aldosterone, Day 10, 12 hours postdose” value (2.5 mg QD, low salt diet, mean) was 69.100 pg/mL. For the same molecule, the “Plasma aldosterone, Day 10, 24 hours postdose” value (2.5 mg QD, low salt diet, mean) was 112.213 pg/mL, the “Plasma aldosterone, Day 10, predose” value (2.5 mg QD, low salt diet, mean) was 97.538 pg/mL and the “Plasma aldosterone, Percent change from Day −1 to Day 10, predose” value (“Plasma aldosterone, Percent change” for short) (2.5 mg QD, low salt diet, mean) was −56.540%. The “Plasma corticosterone, Day 1, 12 hours postdose” value (2.5 mg QD, low salt diet, mean) was 1653.4 pg/mL, the “Plasma corticosterone, Day 1, predose” value (2.5 mg QD, low salt diet, mean) was 3711.5 pg/mL and the “Plasma corticosterone, Day 10, 12 hours postdose” value (2.5 mg QD, low salt diet, mean) was 3412.5 pg/mL. The “Plasma corticosterone, Day 10, 24 hours postdose” value (2.5 mg QD, low salt diet, mean) was 10012.5 pg/mL, the “Plasma corticosterone, Day 10, predose” value (2.5 mg QD, low salt diet, mean) was 7190.0 pg/mL and the “Plasma corticosterone, Percent change from Day −1 to Day 10, predose” value (“Plasma corticosterone, Percent change” for short) (2.5 mg QD, low salt diet, mean) was 132.0%. For the same molecule, the “Plasma 11-deoxycorticosterone, Day −1 predose” value [1] was 50.017 pg/mL, the “Plasma 18-hydroxycorticosterone, Day −1 predose” value [1] was 1185.8 pg/mL and the “Plasma aldosterone, Day −1 predose” value [1] was 153.667 pg/mL. For the same molecule, the “Plasma corticosterone, Day −1 predose” value [1] was 6395.0 pg/mL, the “Plasma 11-deoxycorticosterone, Day 1, 12 hours postdose” value [1] was 23.667 pg/mL and the “Plasma 11-deoxycorticosterone, Day 1, predose” value [1] was 53.200 pg/mL. For the same molecule, the “Plasma 11-deoxycorticosterone, Day 2, predose” value [1] was 69.617 pg/mL, the “Plasma 11-deoxycorticosterone, Day 10, 12 hours postdose” value [1] was 93.780 pg/mL and the “Plasma 11-deoxycorticosterone, Day 10, 24 hours postdose” value [1] was 177.400 pg/mL. The “Plasma 11-deoxycorticosterone, Day 10, predose” value [1] was 130.680 pg/mL, the “Plasma 11-deoxycorticosterone, Percent change from Day −1 to Day 10, predose” value [1] was 171.567% and the “Plasma 18-hydroxycorticosterone, Day 1, 12 hours postdose” value [1] was 267.3 pg/mL. The “Plasma 18-hydroxycorticosterone, Day 1, predose” value [1] was 1087.0 pg/mL, the “Plasma 18-hydroxycorticosterone, Day 2, predose” value [1] was 901.2 pg/mL and the “Plasma 18-hydroxycorticosterone, Day 10, 12 hours postdose” value [1] was 345.6 pg/mL. The “Plasma 18-hydroxycorticosterone, Day 10, 24 hours postdose” value [1] was 1238.0 pg/mL, the “Plasma 18-hydroxycorticosterone, Day 10, predose” value [1] was 1073.4 pg/mL and the “Plasma 18-hydroxycorticosterone, Percent change from Day −1 to Day 10” value [1] was −10.4%. For the same molecule, the “Plasma aldosterone, Day 1, 12 hours postdose” value [1] was 16.535 pg/mL, the “Plasma aldosterone, Day 1, predose” value [1] was 131.250 pg/mL and the “Plasma aldosterone, Day 2, predose” value [1] was 37.700 pg/mL. For the same molecule, the “Plasma aldosterone, Day 10, 12 hours postdose” value [1] was 46.360 pg/mL, the “Plasma aldosterone, Day 10, 24 hours postdose” value [1] was 120.740 pg/mL and the “Plasma aldosterone, Day 10, predose” value [1] was 101.880 pg/mL. The “Plasma aldosterone, Percent change” value [1] was −34.296%, the “Plasma corticosterone, Day 1, 12 hours postdose” value [1] was 889.0 pg/mL and the “Plasma corticosterone, Day 1, predose” value [1] was 5828.3 pg/mL. The “Plasma corticosterone, Day 2, predose” value [1] was 6328.3 pg/mL, the “Plasma corticosterone, Day 10, 12 hours postdose” value [1] was 2704.0 pg/mL and the “Plasma corticosterone, Day 10, 24 hours postdose” value [1] was 11182.0 pg/mL. For the same molecule, the “Plasma corticosterone, Day 10, predose” value [1] was 8102.0 pg/mL, the “Plasma corticosterone, Percent change” value [1] was 60.6% and the “Plasma 11-deoxycorticosterone, Day −1 predose” value (5.0 mg QD, low salt diet, mean) was 49.111 pg/mL. For the same molecule, the “Plasma 18-hydroxycorticosterone, Day −1 predose” value (5.0 mg QD, low salt diet, mean) was 966.3 pg/mL, the “Plasma aldosterone, Day −1 predose” value (5.0 mg QD, low salt diet, mean) was 189.633 pg/mL and the “Plasma corticosterone, Day −1 predose” value (5.0 mg QD, low salt diet, mean) was 3700.7 pg/mL. For the same molecule, the “Plasma 11-deoxycorticosterone, Day 1, 12 hours postdose” value (5.0 mg QD, low salt diet, mean) was 94.622 pg/mL, the “Plasma 11-deoxycorticosterone, Day 1, predose” value (5.0 mg QD, low salt diet, mean) was 55.789 pg/mL and the “Plasma 11-deoxycorticosterone, Day 10, 12 hours postdose” value (5.0 mg QD, low salt diet, mean) was 219.700 pg/mL. For the same molecule, the “Plasma 11-deoxycorticosterone, Day 10, 24 hours postdose” value (5.0 mg QD, low salt diet, mean) was 308.444 pg/mL, the “Plasma 11-deoxycorticosterone, Day 10, predose” value (5.0 mg QD, low salt diet, mean) was 218.611 pg/mL and the “Plasma 11-deoxycorticosterone, Percent change from Day −1 to Day 10, predose” value (5.0 mg QD, low salt diet, mean) was 573.144%. For the same molecule, the “Plasma 18-hydroxycorticosterone, Day 1, 12 hours postdose” value (5.0 mg QD, low salt diet, mean) was 162.3 pg/mL, the “Plasma 18-hydroxycorticosterone, Day 1, predose” value (5.0 mg QD, low salt diet, mean) was 825.8 pg/mL and the “Plasma 18-hydroxycorticosterone, Day 10, 12 hours postdose” value (5.0 mg QD, low salt diet, mean) was 405.2 pg/mL. The “Plasma 18-hydroxycorticosterone, Day 10, 24 hours postdose” value (5.0 mg QD, low salt diet, mean) was 1298.0 pg/mL, the “Plasma 18-hydroxycorticosterone, Day 10, predose” value (5.0 mg QD, low salt diet, mean) was 1159.6 pg/mL and the “Plasma 18-hydroxycorticosterone, Percent change from Day −1 to Day 10” value (5.0 mg QD, low salt diet, mean) was 38.2%. The “Plasma aldosterone, Day 1, 12 hours postdose” value (5.0 mg QD, low salt diet, mean) was 17.511 pg/mL, the “Plasma aldosterone, Day 1, predose” value (5.0 mg QD, low salt diet, mean) was 182.800 pg/mL and the “Plasma aldosterone, Day 10, 12 hours postdose” value (5.0 mg QD, low salt diet, mean) was 49.467 pg/mL. The “Plasma aldosterone, Day 10, 24 hours postdose” value (5.0 mg QD, low salt diet, mean) was 125.811 pg/mL, the “Plasma aldosterone, Day 10, predose” value (5.0 mg QD, low salt diet, mean) was 98.367 pg/mL and the “Plasma aldosterone, Percent change” value (5.0 mg QD, low salt diet, mean) was −36.400%. The “Plasma corticosterone, Day 1, 12 hours postdose” value (5.0 mg QD, low salt diet, mean) was 890.3 pg/mL, the “Plasma corticosterone, Day 1, predose” value (5.0 mg QD, low salt diet, mean) was 2726.3 pg/mL and the “Plasma corticosterone, Day 10, 12 hours postdose” value (5.0 mg QD, low salt diet, mean) was 4738.9 pg/mL. For the same molecule, the “Plasma corticosterone, Day 10, 24 hours postdose” value (5.0 mg QD, low salt diet, mean) was 13976.7 pg/mL, the “Plasma corticosterone, Day 10, predose” value (5.0 mg QD, low salt diet, mean) was 11962.2 pg/mL and the “Plasma corticosterone, Percent change” value (5.0 mg QD, low salt diet, mean) was 460.2%. For the same molecule, the “doses that markedly decrease aldosterone levels” value (low salt diet and normal salt diet) was over 0.5 mg, the “inhibition of aldosterone synthesis” value was “marked, sustained, selective, and generally dose dependent inhibition” and the “inhibition of aldosterone synthesis” value (listed as (R)-compound 1) was “marked, sustained, selective, and generally dose dependent inhibition”.
